Reference: patent publication US20240158446A1, “CYCLIC COMPOUND HAVING SELECTIVE INHIBITORY ACTION ON KRAS OVER HRAS AND NRAS” (CHUGAI SEIYAKU KABUSHIKI KAISHA, priority 2021, published 2024)

Experiments:
[1] = target: GDP-bound KRAS wild-type protein (Homo sapiens, UniProt P01116); experiment: Binding to KRAS by surface plasmon resonance (SPR), Single Cycle Kinetics; conditions: SPR, Single Cycle Kinetics, GDP-bound KRAS wild-type protein; read-out: KRAS KD
[2] = target: GDP-bound NRAS wild-type protein (Homo sapiens, UniProt P01111); experiment: Binding to NRAS by surface plasmon resonance (SPR), Single Cycle Kinetics; conditions: SPR, GDP-bound NRAS wild-type protein vs GDP-bound KRAS wild-type protein
[3] = target: GDP-bound HRAS wild-type protein (Homo sapiens, UniProt P01112); experiment: Binding to HRAS by surface plasmon resonance (SPR), Single Cycle Kinetics; conditions: SPR, GDP-bound HRAS wild-type protein vs GDP-bound KRAS wild-type protein
Chain of GDP-bound HRAS wild-type protein (P01112 whole entry): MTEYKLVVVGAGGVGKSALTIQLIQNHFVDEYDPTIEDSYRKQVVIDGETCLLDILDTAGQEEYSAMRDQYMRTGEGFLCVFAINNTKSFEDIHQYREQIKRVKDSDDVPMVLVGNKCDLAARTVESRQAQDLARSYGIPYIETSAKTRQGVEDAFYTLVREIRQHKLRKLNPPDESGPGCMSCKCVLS

Chain of GDP-bound NRAS wild-type protein (P01111 whole entry): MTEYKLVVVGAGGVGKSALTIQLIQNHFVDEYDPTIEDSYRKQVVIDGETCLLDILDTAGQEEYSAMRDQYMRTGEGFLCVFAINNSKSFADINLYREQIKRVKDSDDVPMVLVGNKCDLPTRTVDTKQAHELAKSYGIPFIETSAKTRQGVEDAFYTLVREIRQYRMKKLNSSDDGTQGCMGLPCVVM
Chain of GDP-bound KRAS wild-type protein (P01116 whole entry): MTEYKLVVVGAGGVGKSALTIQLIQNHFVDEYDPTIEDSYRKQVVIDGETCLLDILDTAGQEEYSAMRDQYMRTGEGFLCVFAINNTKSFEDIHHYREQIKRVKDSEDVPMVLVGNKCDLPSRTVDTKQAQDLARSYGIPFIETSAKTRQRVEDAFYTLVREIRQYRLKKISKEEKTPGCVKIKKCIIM

For `CCC[C@H]1C(=O)N[C@@H]([C@@H](C)CC)C(=O)N(C)CC(=O)N(C)[C@H]2C/C=C\CCN(C2=O)[C@@H](Cc2ccc(C(F)(F)F)cc2)C(=O)N(C)CC(=O)N[C@@H](CCc2ccc(C(F)(F)F)c(Cl)c2)C(=O)N2C[C@H](OCC)C[C@H]2C(=O)NC2(CC(C)(C)C2)C(=O)N(C)[C@@H](CC(F)(F)F)C(=O)N(C)[C@H](C(=O)N(C)C)CC(=O)N1C` [PP2975], the Kd [1] was 0.96 nM, the “NRAS/KRAS (ratio of KD value for NRAS to KD value for KRAS)” value [2] was “A (a compound having 10 or more and less than 20 is denoted as A)” and the “HRAS/KRAS (ratio of KD value for HRAS to KD value for KRAS)” value [3] was “A (a compound having 10 or more and less than 20 is denoted as A)”.

`CCC[C@H]1C(=O)N[C@@H]([C@@H](C)CC)C(=O)N(C)CC(=O)N(C)[C@H]2C/C=C\CCN(C2=O)[C@@H](Cc2ccc(C(F)(F)F)cc2)C(=O)N(C)CC(=O)N[C@@H](CCc2ccc(C(F)(F)F)c(Cl)c2)C(=O)N2C[C@H](OCC)C[C@H]2C(=O)NC2(CC(C)(C)C2)C(=O)N(C)[C@@H](CC(C)C)C(=O)N(C)[C@H](C(=O)N(C)C)CC(=O)N1C` [PP2977] was tested, and the Kd [1] was 0.3 nM, the “NRAS/KRAS (ratio of KD value for NRAS to KD value for KRAS)” value [2] was “A (a compound having 10 or more and less than 20 is denoted as A)” and the “HRAS/KRAS (ratio of KD value for HRAS to KD value for KRAS)” value [3] was “A (a compound having 10 or more and less than 20 is denoted as A)”.

In the case of `CCC[C@H]1C(=O)N[C@@H]([C@@H](C)CC)C(=O)N(C)CC(=O)N(C)[C@H]2C/C=C\CCN(C2=O)[C@@H](Cc2ccc(C(F)(F)F)cc2)C(=O)N(C)CC(=O)N[C@@H](CCc2ccc(C(F)(F)F)c(Cl)c2)C(=O)N2CC3(CC3)C[C@H]2C(=O)NC2(CC(C)(C)C2)C(=O)N(C)[C@@H](CC(C)(C)C)C(=O)N(C)[C@H](C(=O)N(C)C)CC(=O)N1C` [PP2979], the Kd [1] is reported as 0.28 nM, the “NRAS/KRAS (ratio of KD value for NRAS to KD value for KRAS)” value [2] is reported as “A (a compound having 10 or more and less than 20 is denoted as A)” and the “HRAS/KRAS (ratio of KD value for HRAS to KD value for KRAS)” value [3] is reported as “B (a compound having 3 or more and less than 10 is denoted as B)”.

For `C#CC[C@H]1C(=O)N[C@@H]([C@@H](C)CC)C(=O)N(C)CC(=O)N(C)[C@H]2C/C=C\CCN(C2=O)[C@@H](Cc2ccc(C(F)(F)F)cc2)C(=O)N(C)CC(=O)N[C@@H](CCc2ccc(C(F)(F)F)c(Cl)c2)C(=O)N2CC3(CC3)C[C@H]2C(=O)NC2(CC(C)(C)C2)C(=O)N(C)[C@@H](C2CCCC2)C(=O)N(C)[C@H](C(=O)N(C)C)CC(=O)N1C` [PP2980], the Kd [1] was 0.23 nM, the “NRAS/KRAS (ratio of KD value for NRAS to KD value for KRAS)” value [2] was “A (a compound having 10 or more and less than 20 is denoted as A)” and the “HRAS/KRAS (ratio of KD value for HRAS to KD value for KRAS)” value [3] was “B (a compound having 3 or more and less than 10 is denoted as B)”.

For `CCC[C@H]1C(=O)N[C@@H](C2CCCC2)C(=O)N(C)CC(=O)N(C)[C@H]2C/C=C\CCN(C2=O)[C@@H](Cc2ccc(C(F)(F)F)cc2)C(=O)N(C)CC(=O)N[C@@H](CCc2ccc(C(F)(F)F)c(Cl)c2)C(=O)N2CC3(CC3)C[C@H]2C(=O)NC2(CC(C)(C)C2)C(=O)N(C)[C@@H](CC(C)(C)C)C(=O)N(C)[C@H](C(=O)N(C)C)CC(=O)N1C` [PP2981], the Kd [1] was 0.31 nM, the “NRAS/KRAS (ratio of KD value for NRAS to KD value for KRAS)” value [2] was “AA (a compound having 20 or more is denoted as AA)” and the “HRAS/KRAS (ratio of KD value for HRAS to KD value for KRAS)” value [3] was “A (a compound having 10 or more and less than 20 is denoted as A)”.

In the case of `C#CC[C@H]1C(=O)N[C@@H]([C@@H](C)CC)C(=O)N(C)CC(=O)N(C)[C@H]2C/C=C\CCN(C2=O)[C@@H](Cc2ccc(C)cc2)C(=O)N(C)CC(=O)N[C@@H](CCc2ccc(C(F)(F)F)c(Cl)c2)C(=O)N2CC3(CC3)C[C@H]2C(=O)NC2(CC(C)(C)C2)C(=O)N(C)[C@@H](C2CCCC2)C(=O)N(C)[C@H](C(=O)N(C)C)CC(=O)N1C` [PP2982], the Kd [1] is reported as 0.16 nM, the “NRAS/KRAS (ratio of KD value for NRAS to KD value for KRAS)” value [2] is reported as “A (a compound having 10 or more and less than 20 is denoted as A)” and the “HRAS/KRAS (ratio of KD value for HRAS to KD value for KRAS)” value [3] is reported as “A (a compound having 10 or more and less than 20 is denoted as A)”.

With `CCC[C@H]1C(=O)N[C@@H]([C@@H](C)CC)C(=O)N(C)CC(=O)N(C)[C@H]2C/C=C\CCN(C2=O)[C@@H](Cc2ccc(C(F)(F)F)cc2)C(=O)N(C)CC(=O)N[C@@H](CCc2ccc(C(F)(F)F)c(Cl)c2)C(=O)N2CC3(CC3)C[C@H]2C(=O)NC2(CC(C)(C)C2)C(=O)N(C)[C@@H]([C@@H](C)CC)C(=O)N(C)[C@H](C(=O)N(C)C)CC(=O)N1C` [PP2983] the Kd [1] was 0.5 nM, the “NRAS/KRAS (ratio of KD value for NRAS to KD value for KRAS)” value [2] was “AA (a compound having 20 or more is denoted as AA)” and the “HRAS/KRAS (ratio of KD value for HRAS to KD value for KRAS)” value [3] was “A (a compound having 10 or more and less than 20 is denoted as A)”.

For `CCC[C@H]1C(=O)N[C@@H](C2CCCC2)C(=O)N(C)CC(=O)N(C)[C@H]2C/C=C\CCN(C2=O)[C@@H](Cc2ccc(C(F)(F)F)cc2)C(=O)N(C)CC(=O)N[C@@H](CCc2ccc(C(F)(F)F)c(Cl)c2)C(=O)N2C[C@H](OCC)C[C@H]2C(=O)NC2(CC(C)(C)C2)C(=O)N(C)[C@@H](C2CCCC2)C(=O)N(C)[C@H](C(=O)N(C)C)CC(=O)N1C` [PP2984], the Kd [1] was 0.2 nM, the “NRAS/KRAS (ratio of KD value for NRAS to KD value for KRAS)” value [2] was “A (a compound having 10 or more and less than 20 is denoted as A)” and the “HRAS/KRAS (ratio of KD value for HRAS to KD value for KRAS)” value [3] was “B (a compound having 3 or more and less than 10 is denoted as B)”.
